Key:
[1] = UPLC-MS/MS quantification of berberine and metabolites in plasma; type: in vivo, Ross 308 broiler chickens; details: lowest berberine supplementation level (0.1 g/kg feed)
Source text: The study was undertaken following the guidelines of the ethics committee of the Faculty of Veterinary Medicine and Bioscience Engineering, Ghent University, in accordance with the EU Directive 2010/63/EU. One-day-old Ross 308 male broilers were obtained from a local hatchery and housed in pens on wood shavings. They were allotted into 4 groups, with three replicate pens per group each housing 8 chickens. The animals were not vaccinated. Water and commercial starter feed (day 1–12, FARM 1 Mash, Country’s Best, Versele Laga, Deinze, Belgium) or grower (day 13–21, FARM 2 mash, Country’s Best, Versele Laga, Deinze, Belgium) were provided ad libitum. The control group received the standard non-supplemented diets, whereas the chickens in other groups were fed the same feed supplemented with 0.1, 0.5 or 1 g berberine/kg feed throughout the whole trial period. At day 21, 4 birds per pen were weighted then euthanized by sodium pentobarbital injection for sampling. Individual jejunal, ileal, caecal and colonic contents were stored at −20°C for microbiota composition analysis (16S rRNA gene sequencing). Additionally, ileal and caecal content samples were collected and stored at −20°C for berberine and berberine-derived metabolite quantification. Duodenal tissue samples were collected and fixed in 4% phosphate buffered formaldehyde for histological analysis. Blood samples were collected in heparin tubes and centrifuged at 524 g for 10 min to recover the plasma fraction, which was further mixed with 17 mg/mL L-ascorbic acid for dihydroberberine stabilization, and stored at −20°C for berberine and berberine-derived metabolite quantification.
The column temperature was maintained at 25°C. The autosampler temperature was set at 10°C.
A 137.5 µL plasma sample containing 17 mg/mL L-ascorbic acid was used for sample extraction. The ascorbic acid solution was added to prevent oxidation of dihydroberberine to berberine during sample storage ([Feng et al., 2015]). The plasma sample was transferred to an OstroTM 96 well-plate (25 mg) (Waters). Subsequently, 50 µL Milli-Q water and 25 µL of an internal standard solution containing 100 ng/mL of both berberine-d6 and tetrahydropalmatine were added. A 640 µL volume of 1% (v/v) formic acid solution in acetonitrile (1/3 ratio) was added, followed by gentle mixing. Vacuum was applied on the Ostro™ plate for 5 min and the eluate was collected in a 2 mL square 96-well collector plate. The sample was transferred in a glass tube and evaporated at 40°C under a gentle stream of nitrogen in a Pierce (Rockford, United States) Reacti-Therm III™ Heating Module and Reacti-Vap™ III Module. The dried sample extract was reconstituted in 500 µL Milli-Q water, followed by injection of a 5 µL sample aliquot onto the UPLC-MS/MS apparatus. Quantification was based on the ratio of the analyte peak area compared to the peak area of the internal standard berberine-d6.
Calibration standards and quality control samples were prepared as follows: 137.5 µL of blank plasma stabilized with 17 mg/mL L-ascorbic acid were supplemented with 25 µL mixed working solutions of berberine and metabolites (except dihydroberberine) at different levels, 25 µL of dihydroberberine working solution, stabilized with 17 mg/mL L-ascorbic acid, at different levels and 25 µL of an internal standard solution containing 100 ng/mL of both berberine-d6 and tetrahydropalmatine. The calibration curve was in the 0.1–100 ng/mL range, including 0.1, 0.5, 1, 2.5, 5, 10, 25, […], 50 and 100 ng/mL levels.
The UPLC-MS/MS analysis method for the quantification of berberine and berberine-derived metabolites both in plasma and ileal/caecal intestinal content was validated to the guidelines of the European Medicines Agency, i.e., of the Committee for Veterinary Medicinal Products (EMEA/CVMP/VICH/463202/2009) and of the Committee for Medicinal Products for Human Use (EMEA/CHMP/EWP/192217/20), and in accordance with the EU Directive 2002/657/EC. […]

caecal microbiota [2] = assay: SCFA quantification in caecal microbiota cultures supplemented with berberine or berberrubine; type: cell-based, broiler chicken; details: 24 h
Method: As berberine and its demethylated metabolites correlated with SCFAs in vivo, their ability to directly influence SCFA metabolism was assessed in vitro. […] Cultures were centrifuged at 3,724 g for 5 min 1 mL 1:2 diluted supernatant in Milli-Q water was used for SCFA analysis. Acetate, propionate and butyrate were quantified using the GC-FID method described by ([De […] et al., 2010]). This method involves the extraction of SCFA from samples with diethyl ether after the addition of 2-methyl hexanoic acid as an internal standard.

[3] = Bodyweight of broilers fed berberine-supplemented diet; type: in vivo, Ross 308 broiler chickens; details: 21 days post-hatch, n = 12
Source text: The study was undertaken following the guidelines of the ethics committee of the Faculty of Veterinary Medicine and Bioscience Engineering, Ghent University, in accordance with the EU Directive 2010/63/EU. […] They were allotted into 4 groups, with three replicate pens per group each housing 8 chickens. The animals were not vaccinated. Water and commercial starter feed (day 1-12, FARM 1 Mash, Country's Best, […], Belgium) or grower (day 13-21, FARM 2 mash, Country's Best, […], Belgium) were provided ad libitum. […] At day 21, 4 birds per pen were weighted then euthanized by sodium pentobarbital injection for sampling. […] Additionally, ileal and caecal content samples were collected and stored at -20°C for berberine and berberine-derived metabolite quantification.

caecal microbiota [4] = assay: 16S rRNA gene sequencing, microbiota composition in the caecum; type: in vivo, Ross 308 broiler chickens
[5] = 0.1 g berberine/kg feed vs normal diet, 21 days, LinDA-normalized abundance
[6] = 0.1 g berberine/kg feed, 21 days
[7] = 0.5 g berberine/kg feed vs normal diet, 21 days, LinDA-normalized abundance
[8] = 0.5 g berberine/kg feed, 21 days
[9] = 1 g berberine/kg feed vs normal diet, 21 days, LinDA-normalized abundance

COc1ccc2cc3[n+](cc2c1O)CCc1cc2c(cc1-3)OCO2 [Berberrubine, berberrubine chloride]
Quantification in plasma [1]: could also not be quantified | Concentrations of acetate, butyrate and propionate in caecal microbiota cultures (caecal microbiota [2]; higher concentration (2.5 µM)): increased

COc1ccc2cc3[n+](cc2c1OC)CCc1cc2c(cc1-3)OCO2 [Berberine, Berberine chloride]
Bodyweight ([3]; 0.1 g berberine/kg feed): 655 ± 76 g | Bodyweight ([3]; 0.5 g berberine/kg feed): 703 ± 115 g | Bodyweight ([3]; 1 g berberine/kg feed): 671 ± 55 g | L2 FC ASF356, 0.1 vs 0 (caecal microbiota [4]; [5]): 3.88 | L2 FC CHKCI001, 0.1 vs 0 (caecal microbiota [4]; [5]): 1.33 | L2 FC Family_ Lachnospiraceae, 0.1 vs 0 (caecal microbiota [4]; [5]): -0.10 | L2 FC Fusicatenibacter, 0.1 vs 0 (caecal microbiota [4]; [5]): 1.41 | L2 FC uncultured genus of Peptostreptococcaceae, 0.1 vs 0 (caecal microbiota [4]; [5]): 0.26 | Mean relative abundance (%) ASF356 (caecal microbiota [4]; [6]): 0.40% | Mean relative abundance (%) CHKCI001 (caecal microbiota [4]; [6]): 0.02% | Mean relative abundance (%) Family_ Lachnospiraceae (caecal microbiota [4]; [6]): 2.08% | Mean relative abundance (%) Fusicatenibacter (caecal microbiota [4]; [6]): 0.06% | Mean relative abundance (%) uncultured genus of Peptostreptococcaceae (caecal microbiota [4]; [6]): 0.63% | Mean relative abundance of Peptostreptococcaceae (caecal microbiota [4]; [6]): 0.66% | L2FC of LinDA-normalized abundance of Peptostreptococcaceae (caecal microbiota [4]; 0.1 vs 0 g berberine/kg feed): 0.02 | L2 FC ASF356, 0.5 vs 0 (caecal microbiota [4]; [7]): 4.47 | L2 FC CHKCI001, 0.5 vs 0 (caecal microbiota [4]; [7]): 2.34 | L2 FC Family_ Lachnospiraceae, 0.5 vs 0 (caecal microbiota [4]; [7]): 1.25 | L2 FC Fusicatenibacter, 0.5 vs 0 (caecal microbiota [4]; [7]): 3.47 | L2 FC uncultured genus of Peptostreptococcaceae, 0.5 vs 0 (caecal microbiota [4]; [7]): -0.52 | Mean relative abundance (%) ASF356 (caecal microbiota [4]; [8]): 0.38% | Mean relative abundance (%) CHKCI001 (caecal microbiota [4]; [8]): 0.03% | Mean relative abundance (%) Family_ Lachnospiraceae (caecal microbiota [4]; [8]): 5.61% | Mean relative abundance (%) Fusicatenibacter (caecal microbiota [4]; [8]): 0.32% | Mean relative abundance (%) uncultured genus of Peptostreptococcaceae (caecal microbiota [4]; [8]): 0.54% | Mean relative abundance of Peptostreptococcaceae (caecal microbiota [4]; [8]): 0.56% | L2FC of LinDA-normalized abundance of Peptostreptococcaceae (caecal microbiota [4]; 0.5 vs 0 g berberine/kg feed): -0.55 | L2 FC ASF356, 1 vs 0 (caecal microbiota [4]; [9]): 3.78 | L2 FC CHKCI001, 1 vs 0 (caecal microbiota [4]; [9]): 1.13 | L2 FC Family_ Lachnospiraceae, 1 vs 0 (caecal microbiota [4]; [9]): 0.72 | L2 FC Fusicatenibacter, 1 vs 0 (caecal microbiota [4]; [9]): 2.41 | L2 FC uncultured genus of Peptostreptococcaceae, 1 vs 0 (caecal microbiota [4]; [9]): -8.12 | Mean relative abundance (%) ASF356 (caecal microbiota [4]; 1 g berberine/kg feed, 21 days): 0.32% | Mean relative abundance (%) CHKCI001 (caecal microbiota [4]; 1 g berberine/kg feed, 21 days): 0.02% | Mean relative abundance (%) Family_ Lachnospiraceae (caecal microbiota [4]; 1 g berberine/kg feed, 21 days): 5.61% | Mean relative abundance (%) Fusicatenibacter (caecal microbiota [4]; 1 g berberine/kg feed, 21 days): 0.12% | Mean relative abundance (%) uncultured genus of Peptostreptococcaceae (caecal microbiota [4]; 1 g berberine/kg feed, 21 days): 0.00% | Mean relative abundance of Peptostreptococcaceae (caecal microbiota [4]; 1 g berberine/kg feed, 21 days): 0.00% | L2FC of LinDA-normalized abundance of Peptostreptococcaceae (caecal microbiota [4]; 1 vs 0 g berberine/kg feed): -7.85 | Observed number of OTUs (caecal microbiota [4]; lowest concentration (0.1 g/kg feed), p = 0.041): significantly increased | Bacterial richness (Observed number of OTUs) (caecal microbiota [4]; middle concentration (0.5 g/kg feed), p = 0.087): tended to increase | SCFA production in caecal microbiota cultures (caecal microbiota [2]; 25, 2.5 µM): did not significantly affect

COc1cc2c(cc1O)CC[n+]1cc3c(OC)c(OC)ccc3cc1-2 [Jatrorrhizine, Jatrorrhizine chloride]
Quantification in plasma [1]: could also not be quantified

Source: paper PMC10733463, “Berberine-microbiota interplay: orchestrating gut health through modulation of the gut microbiota and metabolic transformation into bioactive metabolites” (Frontiers in Pharmacology, 2023)
